Test results from patent US11168084B2, “Purine based compounds as toll-like receptor 9 antagonist” (COUNCIL OF SCIENTIFIC & INDUSTRIAL RESEARCH, priority 2017, dated 2021).

Biological target: T1, toll-like receptor 9 (TLR9) (Homo sapiens, UniProt Q9NR96)
T1 construct: we isolated PBMCs from venous blood collected from healthy donors using density gradient centrifugation; endogenous in cells; host or cells: primary human PBMC (plasmacytoid dendritic cells) from healthy donors
T1 sequence (Q9NR96 26-1032): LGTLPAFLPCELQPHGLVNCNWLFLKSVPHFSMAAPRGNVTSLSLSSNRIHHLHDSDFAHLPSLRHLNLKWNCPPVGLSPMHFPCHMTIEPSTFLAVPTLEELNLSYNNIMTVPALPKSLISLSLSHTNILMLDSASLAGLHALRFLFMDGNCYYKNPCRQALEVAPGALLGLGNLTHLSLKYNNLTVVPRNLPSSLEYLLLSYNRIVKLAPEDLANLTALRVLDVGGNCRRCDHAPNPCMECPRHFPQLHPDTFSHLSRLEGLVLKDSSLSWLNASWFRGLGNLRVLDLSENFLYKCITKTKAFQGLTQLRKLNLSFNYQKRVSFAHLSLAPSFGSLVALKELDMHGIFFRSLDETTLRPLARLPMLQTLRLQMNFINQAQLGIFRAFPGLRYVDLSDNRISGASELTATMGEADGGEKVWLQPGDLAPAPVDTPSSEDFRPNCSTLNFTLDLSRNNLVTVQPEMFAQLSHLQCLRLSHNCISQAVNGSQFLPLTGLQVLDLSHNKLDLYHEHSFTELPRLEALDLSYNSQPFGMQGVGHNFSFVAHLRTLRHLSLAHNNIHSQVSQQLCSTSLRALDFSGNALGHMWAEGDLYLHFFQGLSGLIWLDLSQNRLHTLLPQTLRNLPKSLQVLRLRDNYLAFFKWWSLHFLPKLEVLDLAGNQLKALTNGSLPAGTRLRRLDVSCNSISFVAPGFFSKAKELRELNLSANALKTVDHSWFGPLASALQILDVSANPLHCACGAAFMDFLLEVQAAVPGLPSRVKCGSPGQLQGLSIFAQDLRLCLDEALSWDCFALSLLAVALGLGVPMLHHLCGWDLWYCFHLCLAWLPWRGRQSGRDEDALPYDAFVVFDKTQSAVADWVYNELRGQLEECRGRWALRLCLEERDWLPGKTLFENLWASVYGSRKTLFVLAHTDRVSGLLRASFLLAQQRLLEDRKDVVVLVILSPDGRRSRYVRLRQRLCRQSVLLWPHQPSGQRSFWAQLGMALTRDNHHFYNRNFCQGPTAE
Assay: Screening of TLR9 antagonistic activity: IFN-alpha production from human PBMC in response to CpGA (ELISA)
Format: cell-based
Conditions: TLR9 antagonism; Table 2 does not say which of the three TLR9 assays
Excerpt: The principle of the screening assay was designed based on the production of Type I interferons (IFN-alpha) from human PBMCs, which results almost exclusively from TLR9 triggering on the PDCs by type A CpG oligonucleotides (CpGA). PBMCs were isolated from venous blood collected from healthy donors using density gradient centrifugation.
A medium throughput biological assay based on toll-like receptor 9 activation has been designed in primary human immune cells to screen the synthesized small molecules with general formula (I) for toll-like receptor 9 (TLR9) antagonism. Among the immune cell subsets circulating in the peripheral blood, two cell subsets plasmacytoid dendritic cells (PDCs) and B lymphocytes has significant expression of TLR9. Plasmacytoid dendritic cells are capable of producing type I interferons (e.g. IFN-alpha) in response to TLR9 ligands. Type A and type B unmethylated cytosine-guanine rich DNA oligonucleotides (CpG oligonucleotides) are the bonafide ligands for TLR9.
In the screening assay we isolated PBMCs from venous blood collected from healthy donors using density gradient centrifugation. PBMCs were cultured the at 2-3*10^5 cells/200 ul/well in a 96 well plate. TLR9 agonist CpGA was added at 1 uM in presence of escalating doses of the synthesized small molecules (0 uM, 0.1 uM, 1 uM, 5 uM, 10 uM and 20 uM). The supernatants was collected after overnight culture from the culture wells and looked for IFN-alpha using enzyme linked immunosorbent assay (ELISA). […] For the biological validation of TLR9 antagonism the bona fide TLR9 agonist CpG oligonucleotides were used.

Compound	IC50 [nM]
CCN1CCN(CCCn2cnc3c(N4CCN(CC)CC4)nc(N4CCCC4)nc32)CC1 [Compound 9]	1830
CCN1CCN(CCCn2cnc3c(N4CCN(CC)CC4)nc(NC(=O)c4ccccc4)nc32)CC1 [Compound 10, N-(6-(4-ethylpiperazin-1-yl)-9-(3-(4-ethylpiperazin-1-yl)propyl)-9H-purin-2-yl)benzamide]	339
CCN1CCN(CCCn2cnc3c(N4CCN(CC)CC4)nc(NCc4ccc(F)cc4)nc32)CC1 [Compound 6, 6-(4-ethylpiperazin-1-yl)-9-(3-(4-ethylpiperazin-1-yl)propyl)-N-(4-fluorobenzyl)-9H-purin-2-amine]	470
CCN1CCN(CCCn2cnc3c(N4CCN(CC)CC4)nc(NCc4ccc(N(CC)CC)cc4)nc32)CC1 [Compound 7, N-(4-(diethylamino)benzyl)-6-(4-ethylpiperazin-1-yl)-9-(3-(4-ethylpiperazin-1-yl)propyl)-9H-purin-2-amine]	438
Nc1nc(N2CCN(C3CCCC3)CC2)c2ncn(CCCN3CCCC3)c2n1 [Compound 29, 6-(4-cyclopentylpiperazin-1-yl)-9-(3-(pyrrolidin-1-yl)propyl)-9H-purin-2-amine]	122
CCN1CCN(CCCn2cnc3c(N4CCN(CC)CC4)nc(NC(=O)C4CCCN4)nc32)CC1 (stereo not shown) [Compound 12, N-(6-(4-ethylpiperazin-1-yl)-9-(3-(4-ethylpiperazin-1-yl)propyl)-9H-purin-2-yl) pyrrolidine-2-carboxamide]	378
Iso-butyl(1-(6-(4-ethylpiperazin-1-yl)-9-(3-(4-ethylpiperazin-1-yl)propyl)-9H-purin-2-yl)amino)-1-oxo-3-phenylpropan-2-yl)carbamate [Compound 15]	470
CCN1CCN(CCCn2cnc3c(N4CCN(C(=O)C5CCCC5)CC4)nc(NCc4ccc(N(CC)CC)cc4)nc32)CC1 [Compound 38, Cyclopentyl(4-(2-(4-(diethylamino)benzylamino)-9-(3-(4-ethylpiperazin-1-yl)propyl)-9H-purin-6-yl)piperazin-1-yl)methanone]	8800
COc1ccc(CNc2nc(N3CCN(C4CCCC4)CC3)c3ncn(CCCN4CCCC4)c3n2)cc1 [Compound 30, 6-(4-cyclopentylpiperazin-1-yl)-N-(4-methoxybenzyl)-9-(3-(pyrrolidin-1-yl)propyl)-9H-purin-2-amine]	241
CCN1CCN(CCCn2cnc3c(N4CCN(C5CCCC5)CC4)nc(NCc4ccc(F)cc4)nc32)CC1 [Compound 25, 6-(4-cyclopentylpiperazin-1-yl)-9-(3-(4-ethylpiperazin-1-yl)propyl)-N-(4-fluorobenzyl)-9H-purin-2-amine]	254
CCN1CCN(CCCn2cnc3c(N4CCN(CC)CC4)nc(NCc4ccc(OC)cc4)nc32)CC1 [Compound 5, 6-(4-ethylpiperazin-1-yl)-9-(3-(4-ethylpiperazin-1-yl)propyl)-N-(4-methoxybenzyl)-9H-purin-2-amine]	203

Further compounds by falling IC50, results first:

IC50 [nM]	Compound
188	CCN1CCN(CCCn2cnc3c(N4CCN(CC)CC4)nc(N)nc32)CC1 [Compound 4, 6-(4-ethylpiperazin-1-yl)-9-(3-(4-ethylpiperazin-1-yl)propyl)-9H-purin-2-amine]
145	CCN1CCN(CCCn2cnc3c(N4CCN(C5CCCC5)CC4)nc(NCc4ccc(N(CC)CC)cc4)nc32)CC1 [Compound 24]
140	CCN1CCN(CCCn2cnc3c(N4CCN(CC)CC4)nc(NCc4ccccc4)nc32)CC1 [Compound 8, N-benzyl-6-(4-ethylpiperazin-1-yl)-9-(3-(4-ethylpiperazin-1-yl)propyl)-9H-purin-2-amine]
120	CCN1CCN(CCCn2cnc3c(N4CCN(C5CCCC5)CC4)nc(NCc4ccc(OC)cc4)nc32)CC1 [Compound 26, 6-(4-cyclopentylpiperazin-1-yl)-9-(3-(4-ethylpiperazin-1-yl)propyl)-N-(4-methoxybenzyl)-9H-purin-2-amine]
100	Fc1ccc(CNc2nc(N3CCN(C4CCCC4)CC3)c3ncn(CCCN4CCCC4)c3n2)cc1 [Compound 32, 6-(4-cyclopentylpiperazin-1-yl)-N-(4-fluorobenzyl)-9-(3-(pyrrolidin-1-yl)propyl)-9H-purin-2-amine]
80	CCN1CCN(c2nc(NCc3ccc(OC)cc3)nc3c2ncn3CCCN2CCCC2)CC1 [Compound 34, 6-(4-ethylpiperazin-1-yl)-N-(4-methoxybenzyl)-9-(3-(pyrrolidin-1-yl)propyl)-9H-purin-2-amine]
56	CCN1CCN(CCCn2cnc3c(N4CCN(C5CCCC5)CC4)nc(NC(=O)c4ccc(CN(C)C)cc4)nc32)CC1 [Compound 27, N-(6-(4-cyclopentylpiperazin-1-yl)-9-(3-(4-ethylpiperazin-1-yl)propyl)-9H-purin-2-yl)-4-((dimethylamino)methyl)benzamide]
5	CN(C)Cc1ccc(C(=O)Nc2nc(N3CCN(C4CCCC4)CC3)c3ncn(CCCN4CCCC4)c3n2)cc1 [Compound 31, N-(6-(4-cyclopentylpiperazin-1-yl)-9-(3-(pyrrolidin-1-yl)propyl)-9H-purin-2-yl)-4-((dimethylamino)methyl)benzamide]
